Converted amounts (≈) assume the structure as drawn.
Legend:
Assay type in all cases: functional
[1] = system: Streptococcus pyogenes; assay: In vitro antibacterial activity of PIU2584 strain of Gram positive bacteria Streptococcus pyogenes
[2] = system: Streptococcus pneumoniae; assay: In vitro antibacterial activity of ATCC 6303 strain of Gram positive bacteria Streptococcus pneumoniae
[3] = system: Staphylococcus aureus; assay: In vitro antibacterial activity of A5177 strain of Gram positive bacteria Staphylococcus aureus
[4] = system: Staphylococcus aureus; assay: In vitro antibacterial activity of A-5278 strain of Gram positive bacteria Staphylococcus aureus
[5] = system: Streptococcus pyogenes; assay: In vitro antibacterial activity of EES61 strain of Gram positive bacteria Streptococcus pyogenes
[6] = system: Streptococcus pneumoniae; assay: In vitro antibacterial activity of 5649 strain of Gram positive bacteria Streptococcus pneumoniae
[7] = system: Haemophilus influenzae; assay: In vitro antibacterial activity of DILL strain of Gram negative bacteria Haemophilus influenzae
[8] = system: Streptococcus pneumoniae; assay: In vitro antibacterial activity of 5979 strain of Gram positive bacteria Streptococcus pneumoniae
[9] = system: Streptococcus pyogenes; assay: In vitro antibacterial activity of 930 strain of Gram positive bacteria Streptococcus pyogenes
[10] = system: Staphylococcus aureus; assay: In vitro antibacterial activity of 6538P strain of Gram positive bacteria Staphylococcus aureus

CC[C@H]1OC(=O)/C(C)=C/[C@H](C)[C@@H](O[C@@H]2O[C@H](C)C[C@H](N(C)C)[C@H]2O)[C@@](C)(OC)C[C@@H](C)C(=O)[C@H](C)[C@H]2N(NCc3ccc(N(C)C)cc3)C(=O)O[C@]12C
MIC [1]: 1 µg/mL (≈ 1.34 µM)
MIC [2]: 0.125 µg/mL (≈ 0.168 µM)
MIC [3]: 0.2 µg/mL (≈ 0.268 µM)
MIC [4]: > 100 µg/mL
MIC [5]: 0.125 µg/mL (≈ 0.168 µM)
MIC [6]: 1 µg/mL (≈ 1.34 µM)
MIC [7]: 16 µg/mL (≈ 21.5 µM)
MIC [8]: > 128 µg/mL
MIC [9]: 128 µg/mL (≈ 172 µM)
MIC [10]: 0.2 µg/mL (≈ 0.268 µM)

CC[C@H]1OC(=O)[C@H](C)[C@@H](O[C@H]2C[C@@](C)(OC)[C@@H](O)[C@H](C)O2)[C@H](C)[C@@H](O[C@@H]2O[C@H](C)C[C@H](N(C)C)[C@H]2O)[C@](C)(O)C[C@@H](C)C(=O)[C@H](C)[C@@H](O)[C@]1(C)O [ERYTHROMYCIN]
MIC [1]: 32 µg/mL (≈ 43.6 µM)
MIC [2]: 0.06 µg/mL (≈ 0.0818 µM)
MIC [3]: 3.1 µg/mL (≈ 4.22 µM)
MIC [4]: > 100 µg/mL
MIC [5]: 0.03 µg/mL (≈ 0.0409 µM)
MIC [6]: 16 µg/mL (≈ 21.8 µM)
MIC [7]: 4 µg/mL (≈ 5.45 µM)
MIC [8]: > 128 µg/mL
MIC [9]: > 128 µg/mL
MIC [10]: 0.2 µg/mL (≈ 0.273 µM)

CC[C@H]1OC(=O)/C(C)=C/[C@H](C)[C@@H](O[C@@H]2O[C@H](C)C[C@H](N(C)C)[C@H]2O)[C@@](C)(OC)C[C@@H](C)C(=O)[C@H](C)[C@H]2N(NCCCc3cccc(O)c3)C(=O)O[C@]12C
MIC [1]: 1 µg/mL (≈ 1.34 µM)
MIC [2]: 0.03 µg/mL (≈ 0.0402 µM)
MIC [3]: 0.1 µg/mL (≈ 0.134 µM)
MIC [4]: > 100 µg/mL
MIC [5]: 0.06 µg/mL (≈ 0.0804 µM)
MIC [6]: 0.5 µg/mL (≈ 0.67 µM)
MIC [7]: 4 µg/mL (≈ 5.36 µM)
MIC [8]: > 128 µg/mL
MIC [9]: 128 µg/mL (≈ 172 µM)
MIC [10]: 0.1 µg/mL (≈ 0.134 µM)

CC[C@H]1OC(=O)/C(C)=C/[C@H](C)[C@@H](O[C@@H]2O[C@H](C)C[C@H](N(C)C)[C@H]2O)[C@@](C)(OC)C[C@@H](C)C(=O)[C@H](C)[C@H]2N(NCCCc3ccccc3Cl)C(=O)O[C@]12C
MIC [1]: 1 µg/mL (≈ 1.31 µM)
MIC [2]: 0.125 µg/mL (≈ 0.164 µM)
MIC [3]: 0.2 µg/mL (≈ 0.262 µM)
MIC [4]: 50 µg/mL (≈ 65.4 µM)
MIC [5]: 0.03 µg/mL (≈ 0.0392 µM)
MIC [6]: 1 µg/mL (≈ 1.31 µM)
MIC [7]: 16 µg/mL (≈ 20.9 µM)
MIC [8]: 32 µg/mL (≈ 41.9 µM)
MIC [9]: 16 µg/mL (≈ 20.9 µM)
MIC [10]: 0.2 µg/mL (≈ 0.262 µM)

CC[C@H]1OC(=O)/C(C)=C/[C@H](C)[C@@H](O[C@@H]2O[C@H](C)C[C@H](N(C)C)[C@H]2O)[C@@](C)(OC)C[C@@H](C)C(=O)[C@H](C)[C@H]2N(NCc3cccc(O)c3)C(=O)O[C@]12C
MIC [1]: 0.5 µg/mL (≈ 0.696 µM)
MIC [2]: 0.03 µg/mL (≈ 0.0418 µM)
MIC [3]: 0.1 µg/mL (≈ 0.139 µM)
MIC [4]: > 100 µg/mL
MIC [5]: 0.03 µg/mL (≈ 0.0418 µM)
MIC [6]: 1 µg/mL (≈ 1.39 µM)
MIC [7]: 4 µg/mL (≈ 5.57 µM)
MIC [8]: > 128 µg/mL
MIC [9]: > 128 µg/mL
MIC [10]: 0.2 µg/mL (≈ 0.279 µM)

CC[C@H]1OC(=O)/C(C)=C/[C@H](C)[C@@H](O[C@@H]2O[C@H](C)C[C@H](N(C)C)[C@H]2O)[C@@](C)(OC)C[C@@H](C)C2=NN3C(=O)O[C@@]1(C)[C@H]3[C@H]2C
MIC [1]: > 128 µg/mL
MIC [2]: > 128 µg/mL
MIC [3]: > 100 µg/mL
MIC [4]: > 100 µg/mL
MIC [5]: > 128 µg/mL
MIC [6]: > 128 µg/mL
MIC [7]: > 128 µg/mL
MIC [8]: > 128 µg/mL
MIC [9]: > 128 µg/mL
MIC [10]: > 100 µg/mL

CC[C@H]1OC(=O)/C(C)=C/[C@H](C)[C@@H](O[C@@H]2O[C@H](C)C[C@H](N(C)C)[C@H]2O)[C@@](C)(OC)C[C@@H](C)C(=O)[C@H](C)[C@H]2N(NCCc3ccccc3)C(=O)O[C@]12C
MIC [1]: 2 µg/mL (≈ 2.79 µM)
MIC [2]: 0.25 µg/mL (≈ 0.349 µM)
MIC [3]: 0.78 µg/mL (≈ 1.09 µM)
MIC [4]: > 100 µg/mL
MIC [5]: 0.25 µg/mL (≈ 0.349 µM)
MIC [6]: 2 µg/mL (≈ 2.79 µM)
MIC [7]: > 64 µg/mL
MIC [8]: > 64 µg/mL
MIC [9]: 64 µg/mL (≈ 89.4 µM)
MIC [10]: 0.78 µg/mL (≈ 1.09 µM)

CC[C@H]1OC(=O)/C(C)=C/[C@H](C)[C@@H](O[C@@H]2O[C@H](C)C[C@H](N(C)C)[C@H]2O)[C@@](C)(OC)C[C@@H](C)C(=O)[C@H](C)[C@H]2N(NCCCc3cccc(Cl)c3)C(=O)O[C@]12C
MIC [1]: 1 µg/mL (≈ 1.31 µM)
MIC [2]: 0.25 µg/mL (≈ 0.327 µM)
MIC [3]: 0.39 µg/mL (≈ 0.51 µM)
MIC [4]: 50 µg/mL (≈ 65.4 µM)
MIC [5]: 0.25 µg/mL (≈ 0.327 µM)
MIC [6]: 2 µg/mL (≈ 2.62 µM)
MIC [7]: 32 µg/mL (≈ 41.9 µM)
MIC [8]: 32 µg/mL (≈ 41.9 µM)
MIC [9]: 16 µg/mL (≈ 20.9 µM)
MIC [10]: 0.39 µg/mL (≈ 0.51 µM)

CC[C@H]1OC(=O)/C(C)=C/[C@H](C)[C@@H](O[C@@H]2O[C@H](C)C[C@H](N(C)C)[C@H]2O)[C@@](C)(OC)C[C@@H](C)C(=O)[C@H](C)[C@H]2N(NCCCc3ccc(OC)cc3)C(=O)O[C@]12C
MIC [1]: 1 µg/mL (≈ 1.32 µM)
MIC [2]: 0.06 µg/mL (≈ 0.0789 µM)
MIC [3]: 0.39 µg/mL (≈ 0.513 µM)
MIC [4]: > 100 µg/mL
MIC [5]: 0.03 µg/mL (≈ 0.0395 µM)
MIC [6]: 2 µg/mL (≈ 2.63 µM)
MIC [7]: 16 µg/mL (≈ 21.1 µM)
MIC [8]: > 64 µg/mL
MIC [9]: 64 µg/mL (≈ 84.2 µM)
MIC [10]: 0.39 µg/mL (≈ 0.513 µM)

CC[C@H]1OC(=O)/C(C)=C/[C@H](C)[C@@H](O[C@@H]2O[C@H](C)C[C@H](N(C)C)[C@H]2O)[C@@](C)(OC)C[C@@H](C)C(=O)[C@H](C)[C@H]2N(NCc3ccccc3O)C(=O)O[C@]12C
MIC [1]: 0.5 µg/mL (≈ 0.696 µM)
MIC [2]: 0.06 µg/mL (≈ 0.0836 µM)
MIC [3]: 0.2 µg/mL (≈ 0.279 µM)
MIC [4]: > 100 µg/mL
MIC [5]: 0.03 µg/mL (≈ 0.0418 µM)
MIC [6]: 2 µg/mL (≈ 2.79 µM)
MIC [7]: 2 µg/mL (≈ 2.79 µM)
MIC [8]: > 64 µg/mL
MIC [9]: > 64 µg/mL
MIC [10]: 0.2 µg/mL (≈ 0.279 µM)

Source: ChEMBL document CHEMBL1131216, “Anhydrolide macrolides. 2. Synthesis and antibacterial activity of 2,3-anhydro-6-O-methyl 11,12-carbazate erythromycin A analogues” (1998)
